Test [1] deals with NFκB. Briefly: NFκB luciferase reporter assay in TNF-α stimulated A549 cells (E-selectin promoter). Conditions: % inhibition or IC50 in μM; for IC50: Homo sapiens, TNF-α stimulated A549 cells, E-selectin promoter luciferase, given as class symbols, read-out: NFκB inh; for NFkB inh.: A549 cells with NFκB luciferase reporter, TNF-α at its EC50, 5 hours. Format: cell-based. On the procedure: A549 cells were stably transfected with an E-selectin promoter containing three NFκB binding sites driving luciferase expression. For the assay, 5×10^4 cells were incubated in 96 well round bottom plates overnight in 100 μL of 10% FBS/RPMI medium at 37° C. in a 5% CO2 atmosphere. The following morning the medium was removed and 90 μL of a 1% DMSO solution of test compound solution was added and the plates incubated for 1 hour. 10 μL of TNF-α was added at its EC50 (normally 6 ng/mL FAC) to each well and the plate incubated for 5 hours. 100 μL of luciferase buffer was added, and after 10 minutes luminescence was read on a Wallac Victor 1420 Multilabel Counter. The data obtained from the Wallac Victor was converted into % inhibition data or IC50 measured in μM.

The subject of test [2] is A549 cells. Briefly: Inhibition of TNF-α induced apoptosis in A549 cells (crystal violet). Format: cell-based. Conditions: Homo sapiens; inhibition of TNF-α induced apoptosis in A549 cells; percent inhibition at 20 μM or IC50 in μM, given as class symbols; read-out: Apopt inh. Here is the method:
The protocol used for determining inhibition of apoptosis in A549 cells was adopted from a system previously described (K. Last-Barney et al., J. of Immunology 141:527-530, 1988). Briefly, 10^5 cells in 200 μL 10% FBS/RPMI antibiotic containing culture medium were plated into 96 well round bottom culture plates and allowed to adhere for 6 hours at 37° C. in a 5% CO2 atmosphere. The media was removed and 100 μL of RPMI+1 μg/mL actinomycin-D was added to each well, followed by 90 μL of test compound solution in 1% DMSO. This was incubated for 1 hour 10 AL TNF-α was added at its EC50 (normally 1 ng/mL FAC) and the plates incubated for 18 hours. The media was aspirated from the plates and 100 μL of 0.5% crystal violet in 20% methanol was added. After 10 minutes the plates were rinsed with water to remove excess stain, air dried, and read on a Spectramax at a wavelength of 590 nm. The data obtained from the Spectramax was converted into percent inhibition data at a concentration of 20 μM or IC50 measured in μM.

Test [3] addresses T1, CXCR2 (Homo sapiens, UniProt P25025).
T1 construct: host or cells: CHO cells
T1 sequence (P25025 1-360): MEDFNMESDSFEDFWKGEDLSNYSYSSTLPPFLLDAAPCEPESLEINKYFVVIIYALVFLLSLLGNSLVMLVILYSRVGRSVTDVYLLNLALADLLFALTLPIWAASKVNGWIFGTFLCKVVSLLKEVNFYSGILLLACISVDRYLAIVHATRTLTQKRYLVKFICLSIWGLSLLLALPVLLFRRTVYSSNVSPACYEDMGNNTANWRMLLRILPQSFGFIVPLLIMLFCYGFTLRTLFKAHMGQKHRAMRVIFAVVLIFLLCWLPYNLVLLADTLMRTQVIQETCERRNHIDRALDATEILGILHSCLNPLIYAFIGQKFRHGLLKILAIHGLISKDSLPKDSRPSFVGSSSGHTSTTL
Nature of the test: CXCR2 radioligand binding assay with 125I labeled IL-8. Conditions: human recombinant CHO cells; for IC50: percent inhibition or IC50, read-out: CXCR2 2 inh.; for CXCR2 2 inh.: percent inhibition or IC50. The text has this:
(§1) This assay is a radioligand binding assay in human recombinant CHO cells with ^125I labeled IL-8 as the ligand. The assay procedure is described in Ahuja, S. K.; Murphy, P. M;.

The target in test [4] is T2, CXCR1 (Homo sapiens, UniProt P25024).
T2 construct: host or cells: CHO cells
T2 sequence (P25024 1-350): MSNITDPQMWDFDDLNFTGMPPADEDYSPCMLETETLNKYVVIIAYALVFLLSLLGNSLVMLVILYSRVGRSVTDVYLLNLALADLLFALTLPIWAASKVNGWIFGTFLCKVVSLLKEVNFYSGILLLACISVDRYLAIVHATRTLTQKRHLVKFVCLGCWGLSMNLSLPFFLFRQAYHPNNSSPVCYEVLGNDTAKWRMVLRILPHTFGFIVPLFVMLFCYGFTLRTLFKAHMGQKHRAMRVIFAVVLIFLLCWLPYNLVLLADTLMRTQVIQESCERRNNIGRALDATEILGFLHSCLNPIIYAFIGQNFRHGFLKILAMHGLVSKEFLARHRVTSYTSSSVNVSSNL
Briefly: CXCR1 radioligand binding assay with 125I labeled IL-8. Conditions: human recombinant CHO cells; for IC50: percent inhibition or IC50, read-out: CXCR1 inh.
Source text: as §1

The values below come from patent US6906046B2 (Celltech R & D Inc., priority 2000, dated 2005).

Turning to `CCCOC(=O)[C@H]1[C@H](C(=O)OCC[Si](C)(C)C)C2C/C(=N\OCc3nnsc3Cl)[C@H]1c1cc(O)ccc12` (racemic) [Example 71, 11-(5-Chloro-[1,2,3]thiadiazol-4-ylmethoxyimino)-4-hydroxy-tricyclo[6.2.2.0^2,7]dodeca-2(7),3,5-triene-9,10-dicarboxylic acid 10-propyl ester 9-(2-trimethylsilanyl-ethyl) ester], the results for the IC50 in test [1] and in test [2] were 10 to 50 µM and less than 10 µM, respectively.

As for `CCCOC(=O)[C@H]1[C@H](C(=O)OCC[Si](C)(C)C)C2C/C(=N\OCc3cccc(F)c3)[C@H]1c1cc(O)ccc12` (racemic) [Example 72, 11-(3-Fluoro-benzyloxyimino)-4-hydroxy-tricyclo[6.2.2.0^2,7]dodeca-2(7),3,5-triene-9,10-dicarboxylic acid 10-propyl ester 9-(2-trimethylsilanyl-ethyl) ester], the IC50 in test [2] was less than 10 µM.

Take `CCCOC(=O)[C@H]1[C@H](C(=O)OCC[Si](C)(C)C)C2C/C(=N\OCC(=O)N3CCN(c4ccccc4)CC3)[C@H]1c1cc(O)ccc12` (stereo in doubt) [Example 73]: the IC50 in test [1] lay within 10 to 50 µM.

Consider `CCCCCN(CCCCC)C(=O)[C@@H]1[C@H](C(=O)N(C)CC(=O)NCc2c(OC)cc(OC)cc2OC)C2CC(=O)[C@H]1c1cc(OCc3ccc(C(=O)N4CCC[C@H]4C(=O)N(C)C)cc3)ccc12` [Example 5], for which, in test [2], the IC50 lay within 10 to 50 µM.

`CCCOC(=O)[C@H]1[C@H](C(=O)OCC[Si](C)(C)C)C2CC(=O)[C@H]1c1ccccc12` [Example 52]: in test [1], the IC50 lay in the range of 10 to 50 µM. Moreover, the inhibition at 20 µM in test [2] lay in the range of 6 to 64%.

Consider `CCCOC(=O)[C@H]1[C@H](C(=O)OCC[Si](C)(C)C)C2C/C(=N\NCCO)[C@H]1c1cc(O)ccc12` [Example 56], for which, in test [2], the IC50 is less than 10 µM.

Turning to `CCCOC(=O)[C@H]1[C@H](C(=O)OCC[Si](C)(C)C)C2C/C(=N\NS(=O)(=O)c3ccccc3)[C@H]1c1cc(O)ccc12` [Example 58], the IC50 in test [2] was in the range of 10 to 50 µM.

Regarding `CCCOC(=O)[C@H]1[C@H](C(=O)OCC[Si](C)(C)C)C2C/C(=N/OCC(=O)N3CCN(c4ccccc4)CC3)[C@H]1c1cc(O)ccc12` [Example 74], the IC50 in test [1] was 10 to 50 µM.

With `CCCOC(=O)[C@H]1[C@H](C(=O)OCC[Si](C)(C)C)C2C/C(=N\NC(=S)NC)[C@H]1c1cc(O)ccc12` [Example 81], the IC50 in test [2] was less than 10 µM.

`CCCOC(=O)[C@H]1[C@H](C(=O)OCC[Si](C)(C)C)C2CC(O)[C@H]1c1cc(O)ccc12` (some centres unmarked) [Example 82]: the IC50 in test [1] is 10 to 50 µM; in test [2], less than 10 µM.

With `CCCOC(=O)[C@H]1[C@H](C(=O)OCC[Si](C)(C)C)C2CC(NCc3ccc(C)cc3)[C@H]1c1cc(O)ccc12` (some centres unmarked) [Example 84], the results for the IC50 in test [1] and in test [2] were 10 to 50 µM and less than 10 µM, respectively.

Regarding `CCCNC1CC2c3ccc(O)cc3[C@H]1[C@@H](C(=O)OCCC)[C@@H]2C(=O)OCC[Si](C)(C)C` (some centres unmarked) [Example 85], the IC50 in test [1] is 10 to 50 µM.

As for `CCCOC(=O)[C@H]1[C@H](C(=O)OCC[Si](C)(C)C)C2CC(NC)[C@H]1c1cc(O)ccc12` (some centres unmarked) [Example 86], the IC50 in test [1] lay within 10 to 50 µM.

On to `CCCOC(=O)[C@H]1[C@H](C(=O)OCC[Si](C)(C)C)C2CC(N(Cc3ccc(C)cc3)C(C)=O)[C@H]1c1cc(O)ccc12` (some centres unmarked) [Example 91], for which the IC50 in test [1] fell in the range of 10 to 50 µM.

On to `CCCOC(=O)[C@H]1[C@H](C(=O)OCC[Si](C)(C)C)C2CC(N(C)C(C)=O)[C@H]1c1cc(OC(C)=O)ccc12` (some centres unmarked) [Example 92], for which, in test [1], the IC50 lay in the range of 10 to 50 µM.

For the compound `CCCOC(=O)[C@H]1[C@H](C(=O)OCC[Si](C)(C)C)C2CC(N(C)C(C)=O)[C@H]1c1cc(O)ccc12` (some centres unmarked) [Example 94], the IC50 in test [1] lay within 10 to 50 µM.

`COc1ccc(COC(=O)[C@H]2[C@H](C(=O)OCC[Si](C)(C)C)C3CC(O)[C@H]2c2cc(O)ccc23)c(OC)c1` (some centres unmarked) [Example 95]: in test [2], the inhibition at 20 µM was in the range of 6 to 64%.

As to `COc1ccc(COC(=O)[C@H]2[C@H](C(=O)OCC[Si](C)(C)C)C3CC(O)[C@H]2c2cc(O)ccc23)c(OC)c1` (some centres unmarked) [Example 96], the IC50 in test [2] is less than 10 µM.

Consider `CCCOC(=O)[C@H]1[C@H](C(=O)OCC[Si](C)(C)C)C2CC3(OCCO3)[C@H]1c1cc(O)ccc12` [Example 97], for which, in test [1], the IC50 was 10 to 50 µM. For the same compound, the inhibition at 20 µM in test [2] lay within 6 to 64%.

Take `CCCOC(=O)[C@H]1[C@H](C(=O)OCC[Si](C)(C)C)C2CC(=CC(=O)OCC)[C@H]1c1cc(O)ccc12` [Example 98]: the inhibition at 20 µM in test [2] fell in the range of 6 to 64%.

Take `CCCOC(=O)[C@H]1[C@H](C(=O)OCC[Si](C)(C)C)C2CC(C)(O)[C@H]1c1cc(O)ccc12` (some centres unmarked) [Example 99]: in test [1], the IC50 fell in the range of 10 to 50 µM.

In the case of `C=C1CC2c3ccc(O)cc3[C@H]1[C@@H](C(=O)OCCC)[C@@H]2C(=O)OCC[Si](C)(C)C` [Example 101], the IC50 in test [2] was less than 10 µM.

`CCCOC(=O)[C@H]1[C@H](C(=O)OCC[Si](C)(C)C)C2CC(O)(CO)[C@H]1c1cc(O)ccc12` (some centres unmarked) [Example 102]: the inhibition at 20 µM in test [2] lay within 6 to 64%.

For the compound `CCCOC(=O)[C@H]1[C@H](C(=O)OCCS(=O)(=O)c2ccc(C)cc2)C2CC(=O)[C@H]1c1cc(O)ccc12` [Example 106], the IC50 in test [1] fell in the range of 10 to 50 µM.

Consider `CCCOC(=O)[C@H]1[C@H](C(=O)OCCC(C)(C)C)C2CC(=O)[C@H]1c1cc(O)ccc12` [Example 107], for which the IC50 in test [1] lay within 10 to 50 µM.

Regarding `CCCOC(=O)[C@@H]1C2C(=O)CC(c3ccc(O)cc32)[C@H]1C(=O)OCCC12CC3CC(CC(C3)C1)C2` (some centres unmarked) [Example 108], the IC50 in test [1] was 10 to 50 µM.

For `CCCOC(=O)[C@@H]1C2C(=O)CC(c3ccc(O)cc32)[C@H]1C(=O)OCCC[Si](C)(C)C` (some centres unmarked) [Example 109], the IC50 in test [1] lay in the range of 10 to 50 µM.

As to `C=CCOC(=O)c1ccc(COc2ccc3c(c2)[C@@H]2C(=O)CC3[C@@H](C(=O)N(C)CC(=O)NCc3c(OC)cc(OC)cc3OC)[C@H]2C(=O)OCC[Si](C)(C)C)cc1` [Example 110], the inhibition at 20 µM in test [2] fell in the range of 6 to 64%.

For `CCCOC(=O)C1C(C(=O)OCC[Si](C)(C)C)C2C/C(=N\Nc3ccccc3Br)[C@H]1c1cc(O)ccc12` (some centres unmarked) [Example 112], the IC50 in test [3] was less than 10 µM; in test [4], 10 to 50 µM. Also, in test [1], the NFkB inh. result is reported as “* (refers to percent inhibition from 6% to 64%)”.

Consider `C[Si](C)(C)CCOC(=O)C1C2CC(=O)[C@@H](c3cc(O)ccc32)C1C(=O)OCC[Si](C)(C)C` (some centres unmarked) [Example 113], for which the IC50 in test [3] and in test [4] was 10 to 50 µM in each case. Further, the NFkB inh. result in test [1] is on record as “* (refers to percent inhibition from 6% to 64%)”.

For `CCCOC(=O)C1C(C(=O)OCC[Si](C)(C)C)C2C[C@H](Nc3ccccc3)[C@H]1c1cc(O)ccc12` (some centres unmarked) [Example 114], the “CXCR2 2 inh.” value in test [3] was “* (refers to percent inhibition from 10-36%)”. In addition, the NFkB inh. entry in test [1] is reported as “* (refers to percent inhibition from 6% to 64%)”.

Regarding `CCCOC(=O)C1C(C(=O)OCC[Si](C)(C)C)C2C[C@@H](Nc3ccccc3)[C@H]1c1cc(O)ccc12` (some centres unmarked) [Example 115], in test [3], the “CXCR2 2 inh.” value is “* (refers to percent inhibition from 10-36%)”. For the same compound, the NFkB inh. entry in test [1] is reported as “* (refers to percent inhibition from 6% to 64%)”. Besides, the CXCR1 inh. entry in test [4] (percent inhibition or IC50) is recorded as “* (refers to percent inhibition from 10-36%)”.
